Source: patent publication US10906924B2, “Modulators of indoleamine 2,3-dioxygenase” (GLAXOSMITHKLINE INTELLECTUAL PROPERTY DEVELOPMENT LIMITED, priority 2017, dated 2021)

Molecular target: indoleamine 2,3-dioxygenase (IDO1) (Homo sapiens, UniProt P14902)
Test: PBMC IDO1 assay (kynurenine by mass spectrometry)
Format: cell-based
Conditions: human PBMC stimulated with IFN-γ and LPS, 2 days incubation, kynurenine detected by mass spectrometry; read-out: IDO1 PBMC pIC50 (converted)

Chain of indoleamine 2,3-dioxygenase (IDO1) (P14902 whole entry): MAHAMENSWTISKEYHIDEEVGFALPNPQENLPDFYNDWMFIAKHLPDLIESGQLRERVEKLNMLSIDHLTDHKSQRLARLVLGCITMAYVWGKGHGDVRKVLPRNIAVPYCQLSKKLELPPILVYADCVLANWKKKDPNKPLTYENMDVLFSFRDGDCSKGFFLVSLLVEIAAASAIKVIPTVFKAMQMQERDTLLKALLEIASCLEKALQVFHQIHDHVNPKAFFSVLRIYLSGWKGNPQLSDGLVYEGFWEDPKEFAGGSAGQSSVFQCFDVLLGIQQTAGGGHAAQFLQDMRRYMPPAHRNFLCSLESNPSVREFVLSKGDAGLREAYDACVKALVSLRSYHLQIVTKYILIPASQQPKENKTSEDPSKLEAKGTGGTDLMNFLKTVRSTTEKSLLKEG

Row | IC50 [nM] | SMILES
1 | 398 | CCOC(=O)N1CCC2(CC1)CC(NC(=O)c1cccc3nc[nH]c13)c1ccccc1O2 (centres unmarked) [Example 39, ethyl 4-(1H-benzo[d]imidazole-7-carboxamido)spiro[chroman-2,4′-piperidine]-1′-carboxylate]
2 | 79.4 | CCOC(=O)N1CCC2(CC1)CC(NC(=O)c1cccc3cn[nH]c13)c1cc(Br)cnc1O2 (centres unmarked) [Example 23, ethyl 6′-bromo-4′-(1H-indazole-7-carboxamido)-3′,4′-dihydrospiro[piperidine-4,2′-pyrano[2,3-b]pyridine]-1-carboxylate]
3 | 501 | CCOC(=O)N1CCC2(CC1)CC(NC(=O)c1cccc3cn[nH]c13)c1cccnc1O2 (centres unmarked) [Example 42, ethyl 4′-(1H-indazole-7-carboxamido)-3′,4′-dihydrospiro[piperidine-4,2′-pyrano[2,3-b]pyridine]-1-carboxylate]
4 | 501 | CCOC(=O)N1CCC2(CC1)C[C@H](NC(=O)c1cccc3cn(COP(=O)(O)O)nc13)c1cc(Br)ncc1O2 [Example 58, (S)-ethyl 6′-bromo-4′-(2-((phosphonooxy)methyl)-2H-indazole-7-carboxamido)-3′,4′-dihydrospiro[piperidine-4,2′-pyrano[2,3-c]pyridine]-1-carboxylate]
5 | 398 | CCOC(=O)N1CCC2(CC1)CC(Nc1nnc(C(F)(F)F)s1)c1ccccc1O2 (centres unmarked) [Example 40, ethyl 4-((5-(trifluoromethyl)-1,3,4-thiadiazol-2-yl)amino)spiro[chroman-2,4′-piperidine]-1′-carboxylate]
6 | 200 | CCOC(=O)N1CCC2(CC1)CC(NC(=O)c1cncc(F)c1)c1ccccc1O2 (centres unmarked) [Example 30, ethyl 4-(5-fluoronicotinamido)spiro[chroman-2,4′-piperidine]-1′-carboxylate]
7 | 10 | CCOC(=O)N1CCC2(CC1)CC(NC(=O)c1cccc3cn[nH]c13)c1nc(OC)ccc1O2 (centres unmarked) [Example 9, ethyl 4′-(1H-indazole-7-carboxamido)-6′-methoxy-3′,4′-dihydrospiro[piperidine-4,2′-pyrano[3,2-b]pyridine]-1-carboxylate]
8 | 100 | CCOC(=O)N1CCC2(CC1)CC(NC(=O)c1cccc3cc[nH]c13)c1ccc(Br)cc1O2 (centres unmarked) [Example 24, ethyl 7-bromo-4-(1H-indole-7-carboxamido)spiro[chroman-2,4′-piperidine]-1′-carboxylate]
9 | 79.4 | CCOC(=O)N1CCC2(CC1)CC(NC(=O)c1cccnc1)c1cc(Br)ccc1O2 (centres unmarked) [Example 21, ethyl 6-bromo-4-(nicotinamido)spiro[chroman-2,4′-piperidine]-1′-carboxylate]
10 | 126 | CCOC(=O)N1CCC2(CC1)CC(NC(=O)c1cncc3cn[nH]c13)c1ccccc1O2 (centres unmarked) [Example 26, ethyl 4-(1H-pyrazolo[4,3-c]pyridine-7-carboxamido)spiro[chroman-2,4′-piperidine]-1′-carboxylate]
11 | 5.01 | CCOC(=O)N1CCC2(CC1)C[C@H](NC(=O)c1cccc3[nH]ccc13)c1cc(Br)ccc1O2 [Example 8, (S)-ethyl 6-bromo-4-(1H-indole-4-carboxamido)spiro[chroman-2,4′-piperidine]-1′-carboxylate]
12 | 794 | CCOC(=O)N1CCC2(CC1)CC(NC(=O)c1ncccc1OC)c1ccccc1O2 (centres unmarked) [Example 46, ethyl 4-(3-methoxypicolinamido)spiro[chroman-2,4′-piperidine]-1′-carboxylate]
13 | 10 | COC(=O)N1CCC2(CC1)C[C@H](NC(=O)c1cccc3cn[nH]c13)c1nc(OC)ccc1O2 [Example 57, methyl (S)-4′-(1H-indazole-7-carboxamido)-6′-methoxy-3′,4′-dihydrospiro[piperidine-4,2′-pyrano[3,2-b]pyridine]-1-carboxylate]
14 | 126 | CCOC(=O)N1CCC2(CC1)C[C@H](NC(=O)c1cccc3cn(COP(=O)(O)O)nc13)c1cc(Br)ccc1O2 [Example 50, 2-amino-2-(hydroxymethyl)propane-1,3-diol hemi((S)-(7-((6-bromo-1-(ethoxycarbonyl)spiro[chroman-2,4′-piperidin]-4-yl)carbamoyl)-2H-indazol-2-yl)methyl phosphate)]
15 | 79.4 | CCCC(=O)N1CCC2(CC1)C[C@H](NC(=O)c1cccc3cn[nH]c13)c1cc(Br)ccc1O2 [Example 22, (S)—N-(6-bromo-1′-butyrylspiro[chroman-2,4′-piperidin]-4-yl)-1H-indazole-7-carboxamide]
16 | 12.6 | CCOC(=O)N1CCC2(CC1)C[C@H](NC(=O)c1ccccc1N)c1cc(Br)ccc1O2 [Example 10, (S)-ethyl 4-(2-aminobenzamido)-6-bromospiro[chroman-2,4′-piperidine]-1′-carboxylate]
17 | 631 | CCOC(=O)N1CCC2(CC1)C[C@H](NC(=O)c1ccn[nH]1)c1cc(Br)ccc1O2 [Example 44, (S)-ethyl 6-bromo-4-(1H-pyrazole-5-carboxamido)spiro[chroman-2,4′-piperidine]-1′-carboxylate]
